Among the test systems are A498 renal; CCRF-CEM leukemia; HOP-62 NSCLC; HT29 colon; MALME-3M melanoma; MDA-MB-435; MDA-N; NCI-H23 lung; RPMI-8226 leukemia; SNB-19 CNS.
Experiment in all cases: NCI anticancer screen, dose series, 48 h

For 13 compounds, TGI and GI50 results are on record in PubChem BioAssay (NCI).

Where “and” joins values, the source holds several entries; their conditions need not be identical. Equal entries are not always repeated.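 How tested: cells in 96-well plates exposed to compound for 48 hours at five concentrations. GI50: concentration for 50% inhibition of growth. TGI marks complete inhibition of growth.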

`O=C(CCCN1CCC(Nc2ccc(F)cc2)(c2nnnn2C2CCCCC2)CC1)c1ccc(F)cc1`: the TGI with A498 renal was 12.5 µM; with CCRF-CEM leukemia, greater than 100 µM; in the experiment on HOP-62 NSCLC it was 33.6 µM; in the experiment with HT29 colon, greater than 100 µM; in the experiment on MALME-3M melanoma it was greater than 100 µM; with MDA-MB-435, 31.5 µM. Further, the TGI in the experiment on MDA-N is 30.7 µM; with NCI-H23 lung, 29 µM; with RPMI-8226 leukemia, 34.4 µM; in the experiment on SNB-19 CNS it was 36 µM.

For the compound `COc1ccc(C2=Nn3c(C)nnc3S/C2=C\c2ccc(-c3ccc([N+](=O)[O-])cc3)o2)cc1`, the TGI was 89.8 µM with A498 renal; greater than 100 µM with CCRF-CEM leukemia; greater than 100 µM in the experiment with HOP-62 NSCLC; 43 µM in the experiment on HT29 colon; 86.3 µM with MALME-3M melanoma; 17.9 µM in the experiment on MDA-MB-435. For the same compound, the TGI in the experiment on MDA-N came out at 29.8 µM; in the experiment on NCI-H23 lung it was 28.5 µM; in the experiment with RPMI-8226 leukemia, 15.5 µM; with SNB-19 CNS it was 38.7 µM.

As for `O=[N+]([O-])C(=C(\Cl)NCCO)/C(Cl)=C(/Cl)Br`, the TGI was found to be 12 µM in the experiment on A498 renal; 2.01 µM in the experiment on CCRF-CEM leukemia; 29 µM with HOP-62 NSCLC; 3.67 µM in the experiment on HT29 colon; 3.8 µM in the experiment with MALME-3M melanoma; 2.67 µM with MDA-MB-435. The TGI in the experiment on MDA-N amounted to 3.97 µM; in the experiment with NCI-H23 lung it was 11.1 µM; in the experiment with RPMI-8226 leukemia it was 6.14 µM; with SNB-19 CNS, 18 µM.

On to `CCCCCC(=O)OC[n+]1ccc(-c2c(COC(=O)NC(C)C)c(COC(=O)NC(C)C)c3n2CCC3)cc1`, for which the TGI in the experiment with A498 renal, in the experiment on CCRF-CEM leukemia, in the experiment on HOP-62 NSCLC, in the experiment with HT29 colon, in the experiment with MALME-3M melanoma and in the experiment on MDA-MB-435 was greater than 100 µM each time. In addition, the TGI in the experiment with MDA-N, in the experiment with NCI-H23 lung, in the experiment on RPMI-8226 leukemia and in the experiment with SNB-19 CNS was greater than 100 µM in each case.

As for `O=[N+]([O-])c1cc(C2ON=C(c3ccccc3)N2C23CC4CC(CC(C4)C2)C3)ccc1Cl` (centres undefined), the TGI with A498 renal, in the experiment on CCRF-CEM leukemia, with HOP-62 NSCLC, in the experiment on HT29 colon, with MALME-3M melanoma and in the experiment on MDA-MB-435 was greater than 100 µM in each case. The TGI with MDA-N, in the experiment on NCI-H23 lung, with RPMI-8226 leukemia and in the experiment with SNB-19 CNS was greater than 100 µM throughout.

Regarding `COc1cc2oc(=O)cc(C)c2c(OC)c1OC`, the TGI in the experiment on A498 renal was 96.8 µM; in the experiment on CCRF-CEM leukemia it was greater than 100 µM; in the experiment with HOP-62 NSCLC, greater than 100 µM; in the experiment with HT29 colon it was greater than 100 µM; in the experiment on MALME-3M melanoma, greater than 100 µM; in the experiment with MDA-MB-435, greater than 100 µM. For the same compound, the TGI with MDA-N, in the experiment with NCI-H23 lung, in the experiment with RPMI-8226 leukemia and with SNB-19 CNS was greater than 100 µM throughout.

Regarding `c1ccc2c[n+](Cc3ccnc4ccccc34)ccc2c1`, the TGI in the experiment with A498 renal, in the experiment with CCRF-CEM leukemia, with HOP-62 NSCLC, with HT29 colon, in the experiment with MALME-3M melanoma and in the experiment on MDA-MB-435 was greater than 100 µM in each case. In addition, the TGI in the experiment with MDA-N, in the experiment on NCI-H23 lung, in the experiment on RPMI-8226 leukemia and in the experiment with SNB-19 CNS was greater than 100 µM throughout.

As to `C=CCOC1=C(OC(C)=O)C(C2COC(C)(C)O2)OC1=O` (centres undefined), the TGI is greater than 100 µM with A498 renal; 41.7 µM in the experiment on CCRF-CEM leukemia; greater than 100 µM in the experiment with HOP-62 NSCLC; 38.4 µM in the experiment with HT29 colon; 35.1 µM with MALME-3M melanoma; 46.2 µM in the experiment on MDA-MB-435. Besides, the TGI in the experiment on MDA-N was greater than 100 µM; in the experiment with NCI-H23 lung, 35 µM; in the experiment on RPMI-8226 leukemia it was 61 µM; in the experiment on SNB-19 CNS it was greater than 100 µM.

For `COc1ccc(/C=C2/C(=O)C(c3ccccc3)N(c3ccccc3)C2=O)cc1OC` (centres undefined), the TGI is 2.75 µM in the experiment on A498 renal; greater than 10 µM in the experiment on CCRF-CEM leukemia; greater than 10 µM with HOP-62 NSCLC; greater than 10 µM in the experiment on HT29 colon; greater than 10 µM in the experiment with MALME-3M melanoma; greater than 10 µM with MDA-MB-435. In addition, the TGI with MDA-N, in the experiment with NCI-H23 lung, in the experiment with RPMI-8226 leukemia and in the experiment with SNB-19 CNS was greater than 10 µM each time.

On to `CCN(CC)C(=O)CCNC(C)Cc1c[nH]c2ccccc12` (centres undefined), for which the TGI in the experiment on A498 renal, in the experiment on CCRF-CEM leukemia, in the experiment with HOP-62 NSCLC, with HT29 colon, in the experiment on MALME-3M melanoma and in the experiment with MDA-MB-435 was greater than 100 µM throughout. The TGI in the experiment on MDA-N, in the experiment with NCI-H23 lung, in the experiment on RPMI-8226 leukemia and in the experiment with SNB-19 CNS was greater than 100 µM in each case.

`NC(=O)NC(=O)c1cccc(C(=O)NC(N)=O)n1`: the TGI in the experiment with A498 renal, with CCRF-CEM leukemia, in the experiment with HOP-62 NSCLC, with HT29 colon, in the experiment with MALME-3M melanoma and in the experiment with MDA-MB-435 was greater than 100 µM throughout. The TGI with MDA-N, in the experiment on NCI-H23 lung, in the experiment on RPMI-8226 leukemia and in the experiment with SNB-19 CNS was greater than 100 µM in each case.

Turning to `CN(C)C=Nc1cccc2c1NSN2`, the TGI with A498 renal, in the experiment with CCRF-CEM leukemia, in the experiment on HOP-62 NSCLC, in the experiment on HT29 colon, in the experiment on MALME-3M melanoma and in the experiment with MDA-MB-435 was greater than 100 µM throughout. The TGI in the experiment on MDA-N, in the experiment with NCI-H23 lung, in the experiment on RPMI-8226 leukemia and in the experiment on SNB-19 CNS was greater than 100 µM in each case.

In the case of `COc1ccc(-c2c(C#N)c(N)n(C3OC(COC(C)=O)C(OC(C)=O)C(OC(C)=O)C3OC(C)=O)c(=S)c2C#N)cc1` (centres undefined), the TGI in the experiment with A498 renal was 91.4 µM and 63.5 µM; in the experiment with CCRF-CEM leukemia, greater than 100 µM; in the experiment with HOP-62 NSCLC, 89.1 µM and 51.6 µM; with HT29 colon, greater than 100 µM; in the experiment on MALME-3M melanoma, > 100 µM and 75.7 µM; in the experiment on MDA-MB-435, > 100 µM and 26.2 µM. In addition, the TGI was > 100 µM and 28.2 µM in the experiment on MDA-N; greater than 100 µM in the experiment on NCI-H23 lung; > 100 µM and 68.8 µM in the experiment with RPMI-8226 leukemia; greater than 100 µM in the experiment on SNB-19 CNS. For the same compound, the GI50 with CCRF-CEM leukemia was > 100 µM and 46.5 µM; with HT29 colon it was 84.7 µM and 36.2 µM; in the experiment with MDA-MB-435, 44.1 µM and 13.4 µM; with MDA-N it was 58.3 µM and 15 µM.
